Test results: paper PMC9203742 (Nature Communications, 2022)
“And” between values parts separate entries of the source, which are not always exact repeats. Equal entries are not always repeated.

Legend:
[1] = test system: mGlu1 construct not given; assay: Fura-2 Ca2+ imaging in HEK293 cells, source data Suppl Fig1, right group (c18-c26); construct not given; format: cell-based, rat; settings: single-cell values, cells #15-#20; right group of third block
Excerpt: (§1) Supplement 41467_2022_30828_MOESM6_ESM.zip/Ojima et al_source data_Suppl Fig.xlsx, sheet "Suppl Fig1" | column: Glu; NiCl2; CuCl2; ZnCl2; CdCl2; Na2PdCl2; Pd(bpy)

[2] = test system: mGlu1 construct not given; assay: Fura-2 Ca2+ imaging in HEK293 cells, source data Suppl Fig1, left group (c0-c8); construct not given; format: cell-based, rat; settings: single-cell values, cells #15-#20; left group of third block
Excerpt: as §1

mGlu1 A59H/G266H mutant [3] = molecular target: T1, mGlu1 A59H/G266H mutant (Rattus norvegicus, UniProt P23385, A59H/G266H); assay: Fura-2 Ca2+ imaging in HEK293 cells expressing mGlu1 A59H/G266H; format: cell-based; settings: single-cell values; on Ca2+ response (delta ratio), A59H/G266H: test concentration or dose not given here
T1 construct: expressed in transfected cells; host or cells: HEK293
T1 sequence (P23385 19-1199 A59H/G266H): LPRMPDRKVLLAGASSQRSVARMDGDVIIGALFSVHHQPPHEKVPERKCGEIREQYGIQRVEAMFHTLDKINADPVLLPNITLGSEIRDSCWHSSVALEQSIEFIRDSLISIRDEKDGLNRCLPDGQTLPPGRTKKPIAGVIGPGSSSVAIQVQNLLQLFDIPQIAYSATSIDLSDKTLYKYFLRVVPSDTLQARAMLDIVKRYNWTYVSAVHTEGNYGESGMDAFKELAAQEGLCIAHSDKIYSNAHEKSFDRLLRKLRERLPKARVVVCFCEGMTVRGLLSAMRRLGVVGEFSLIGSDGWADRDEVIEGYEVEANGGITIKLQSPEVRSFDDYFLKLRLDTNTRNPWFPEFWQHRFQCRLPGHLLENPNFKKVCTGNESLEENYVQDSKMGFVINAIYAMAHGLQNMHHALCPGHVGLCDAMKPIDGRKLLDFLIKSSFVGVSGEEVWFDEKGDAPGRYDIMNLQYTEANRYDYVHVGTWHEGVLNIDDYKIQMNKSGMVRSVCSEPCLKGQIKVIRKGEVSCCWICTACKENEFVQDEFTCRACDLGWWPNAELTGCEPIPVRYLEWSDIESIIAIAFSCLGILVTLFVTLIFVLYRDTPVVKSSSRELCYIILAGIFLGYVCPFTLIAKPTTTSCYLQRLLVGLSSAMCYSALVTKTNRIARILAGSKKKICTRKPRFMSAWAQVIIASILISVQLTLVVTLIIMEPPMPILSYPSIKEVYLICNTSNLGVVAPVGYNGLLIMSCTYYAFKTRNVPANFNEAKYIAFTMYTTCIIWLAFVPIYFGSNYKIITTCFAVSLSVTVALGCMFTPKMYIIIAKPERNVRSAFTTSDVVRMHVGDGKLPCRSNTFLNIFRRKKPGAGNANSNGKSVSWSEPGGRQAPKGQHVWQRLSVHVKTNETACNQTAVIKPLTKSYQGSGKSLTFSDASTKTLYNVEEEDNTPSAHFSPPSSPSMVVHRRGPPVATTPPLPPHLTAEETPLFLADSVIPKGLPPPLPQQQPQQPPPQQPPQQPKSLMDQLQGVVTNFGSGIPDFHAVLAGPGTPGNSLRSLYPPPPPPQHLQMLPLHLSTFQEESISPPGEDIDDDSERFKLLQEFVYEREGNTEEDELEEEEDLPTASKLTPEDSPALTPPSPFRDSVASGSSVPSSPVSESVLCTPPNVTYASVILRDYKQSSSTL

[4] = test system: HEK293 cells, vector control; assay: Fura-2 Ca2+ imaging in HEK293 cells transfected with control vector (Vec); format: cell-based; settings: single-cell values #1-#20; on Ca2+ response of individual cells (source data Suppl Fig1), Vec: test concentration or dose not given here
mGlu1 A59H/A265H mutant [5] = molecular target: T2, mGlu1 A59H/A265H mutant (Rattus norvegicus, UniProt P23385, A265H/A59H); assay: Fura-2 Ca2+ imaging in HEK293 cells expressing mGlu1 A59H/A265H; format: cell-based; settings: Fig.1e
T2 construct: expressed in transfected cells; host or cells: HEK293
T2 sequence (P23385 19-1199 A59H/A265H): as the sequence (P23385 19-1199 A59H/G266H) above, with A247H, H248G counted along it

mGlu1 P58H/N264H mutant = molecular target: T3, mGlu1 P58H/N264H mutant (Rattus norvegicus, UniProt P23385, N264H/P58H); assay: Fura-2 Ca2+ imaging in HEK293 cells expressing mGlu1 P58H/N264H; format: cell-based
T3 construct: expressed in transfected cells; host or cells: HEK293
T3 sequence (P23385 19-1199 P58H/N264H): as the sequence (P23385 19-1199 A59H/G266H) above, with P40H, H41A, N246H, H248G counted along it

mGlu1 A59H/A265H mutant [6] = molecular target: T2, mGlu1 A59H/A265H mutant; assay: Fura-2 Ca2+ imaging in HEK293 cells expressing mGlu1 A59H/A265H; format: cell-based; settings: single-cell values
WT mGlu1 = molecular target: T4, WT mGlu1 (Rattus norvegicus, UniProt P23385); format: cell-based; further: test concentration or dose not given here
T4 construct: expressed in transfected cells; host or cells: HEK293
T4 sequence (P23385 19-1199): as the sequence (P23385 19-1199 A59H/G266H) above, with H41A, H248G counted along it

mGlu1 A59H/N264H mutant = molecular target: T5, mGlu1 A59H/N264H mutant (Rattus norvegicus, UniProt P23385, A59H/N264H); assay: Fura-2 Ca2+ imaging in HEK293 cells expressing mGlu1 A59H/N264H; format: cell-based
T5 construct: expressed in transfected cells; host or cells: HEK293
T5 sequence (P23385 19-1199 A59H/N264H): as the sequence (P23385 19-1199 A59H/G266H) above, with N246H, H248G counted along it

[7] = test system: HEK293 cells, vector control; assay: Fura-2 Ca2+ imaging in HEK293 cells transfected with control vector (Vec); format: cell-based; settings: Fig.1e; on Ca2+ response of individual cells (source data Suppl Fig1), Vec: test concentration or dose not given here
Excerpt: Supplement 41467_2022_30828_MOESM6_ESM.zip/Ojima et al_source data_Main Figure.xlsx, sheet "Fig.1e" | column: Vec

mGlu1 A59H/G266H mutant [8] = molecular target: T1, mGlu1 A59H/G266H mutant; assay: Fura-2 Ca2+ imaging in HEK293 cells expressing mGlu1 A59H/G266H; format: cell-based; settings: Fig.1e
[9] = test system: mGlu1 construct not given; assay: Fura-2 Ca2+ imaging in HEK293 cells, source data Suppl Fig1, middle group (c9-c17); construct not given; format: cell-based, rat; settings: single-cell values, cells #15-#20; middle group of third block
Excerpt: as §1

mGlu1 K61H/N264H mutant = molecular target: T6, mGlu1 K61H/N264H mutant (Rattus norvegicus, UniProt P23385, K61H/N264H); assay: Fura-2 Ca2+ imaging in HEK293 cells expressing mGlu1 K61H/N264H; format: cell-based
T6 construct: expressed in transfected cells; host or cells: HEK293
T6 sequence (P23385 19-1199 K61H/N264H): as the sequence (P23385 19-1199 A59H/G266H) above, with H41A, K43H, N246H, H248G counted along it

mGlu1 E60H/N264H mutant = molecular target: T7, mGlu1 E60H/N264H mutant (Rattus norvegicus, UniProt P23385, E60H/N264H); assay: Fura-2 Ca2+ imaging in HEK293 cells expressing mGlu1 E60H/N264H; format: cell-based
T7 construct: expressed in transfected cells; host or cells: HEK293
T7 sequence (P23385 19-1199 E60H/N264H): as the sequence (P23385 19-1199 A59H/G266H) above, with H41A, E42H, N246H, H248G counted along it

mGlu1 P57H/N264H mutant = molecular target: T8, mGlu1 P57H/N264H mutant (Rattus norvegicus, UniProt P23385, N264H/P57H); assay: Fura-2 Ca2+ imaging in HEK293 cells expressing mGlu1 P57H/N264H; format: cell-based
T8 construct: expressed in transfected cells; host or cells: HEK293
T8 sequence (P23385 19-1199 P57H/N264H): as the sequence (P23385 19-1199 A59H/G266H) above, with P39H, H41A, N246H, H248G counted along it

[Cl-].[Cl-].[Zn+2] [ZnCl2]
Ca2+ response of individual cells (source data, sheet Suppl Fig1) [1]: -0.02524 and -0.001377 and -0.01992 and 0.004231 and -0.03185 and -0.008431 | Ca2+ response of individual cells (source data, sheet Suppl Fig1) [2]: -0.009 and -0.001631 and -0.01245 and -0.02388 and -0.01824 and -0.008531 | Ca2+ response of individual cells (source data Suppl Fig1), A59H/G266H (mGlu1 A59H/G266H mutant [3]): -0.005723 and -0.01571 and -0.007938 and -0.01115 and -0.002308 and 0.008723 and -0.07331 and -0.0327 and -0.004923 and 0.01074 and -0.0004923 and -0.02615 and -0.03942 and 0.04141 | Ca2+ response of individual cells (source data Suppl Fig1), Vec [4]: -0.02208 and -0.02062 and -0.01588 and -0.01264 and 0.0006769 and -0.01746 and -1.54E-05 and -0.004454 and -0.02104 and -0.008908 and -0.02662 and 0.006915 and 0.02477 and 0.001469 and -0.01177 and -0.03347 and -0.02945 and -0.01742 and 0.01306 and -0.02001 | Ca2+ response (delta ratio), A59H/A265H (mGlu1 A59H/A265H mutant [5]): 0.009782 | Ca2+ response (delta ratio), P58H/N264H (mGlu1 P58H/N264H mutant; Fig.1e): -0.00161 | Ca2+ response of individual cells (source data Suppl Fig1), P58H/N264H (mGlu1 P58H/N264H mutant; single-cell values #1-#20, P58H/N264H): -0.01858 and -0.04214 and -0.01035 and -0.0081 and -0.006638 and 0.08488 and -0.007315 and -0.007238 and -0.01048 and -0.008431 and -0.001785 and 0.004277 and -0.0127 and -0.01994 and 0.003692 and 0.002931 and 0.009408 and 0.02135 and 0.0149 and -0.01995 | Ca2+ response of individual cells (source data Suppl Fig1), A59H/A265H (mGlu1 A59H/A265H mutant [6]): 0.02775 and 0.01526 and -0.01 and -0.0009538 and -0.04594 and 0.01742 and 0.01817 and 0.02166 and -0.009515 and -0.04688 and 0.04091 and -0.03576 and 0.04018 and -0.001815 | Ca2+ response (delta ratio), WT (WT mGlu1; Fig.1e): 0.00492 | Ca2+ response of individual cells (source data Suppl Fig1), WT (WT mGlu1; single-cell values #1-#20, WT): -0.0004923 and -0.006346 and -0.007608 and 0.01052 and -0.003585 and 0.007785 and 0.05315 and -0.005223 and -0.002885 and -0.002892 and -0.004792 and -0.003569 and 0.002877 and -0.04019 and -0.002708 and -0.06293 and -0.001754 and 0.176 and -0.006623 and -0.0003538 | Ca2+ response (delta ratio), A59H/N264H (mGlu1 A59H/N264H mutant; Fig.1e): 0.00725 | Ca2+ response of individual cells (source data Suppl Fig1), A59H/N264H (mGlu1 A59H/N264H mutant; single-cell values #1-#20, A59H/N264H): -0.01136 and 0.3757 and -0.01768 and -0.004631 and 0.0006077 and -0.008377 and -0.02044 and 0.005169 and -0.005323 and -0.01275 and -0.1876 and -0.01388 and 0.06164 and -0.009792 and -0.01495 and -0.03905 and -8.46E-05 and 0.03053 and 0.01748 and -0.0002154 | Ca2+ response (delta ratio), Vec [7]: -0.01075 | Ca2+ response (delta ratio), A59H/G266H (mGlu1 A59H/G266H mutant [8]): -0.01208 | Ca2+ response of individual cells (source data, sheet Suppl Fig1) [9]: -0.0199 and 0.02527 and 0.05882 and -0.05132 and 0.1351 and 0.01718 | Ca2+ response (delta ratio), K61H/N264H (mGlu1 K61H/N264H mutant; Fig.1e): 0.01018 | Ca2+ response of individual cells (source data Suppl Fig1), K61H/N264H (mGlu1 K61H/N264H mutant; single-cell values, K61H/N264H): 0.0106 and 0.02204 and -0.0158 and -0.01138 and -0.0001308 and -0.01253 and -0.01344 and 0.3114 and -0.05129 and -0.02739 and -0.01424 and -0.005346 and 0.09999 and -0.01502 | Ca2+ response (delta ratio), E60H/N264H (mGlu1 E60H/N264H mutant; Fig.1e): -0.009416 | Ca2+ response of individual cells (source data Suppl Fig1), E60H/N264H (mGlu1 E60H/N264H mutant; single-cell values #1-#20, E60H/N264H): -0.005892 and -0.03255 and -0.003646 and -0.02008 and -0.003615 and 0.05645 and 0.08788 and -0.01442 and -0.01449 and -0.04369 and -0.008223 and -0.02082 and -0.01922 and -0.01408 and -0.01929 and -0.02112 and -0.02071 and -0.02984 and -0.03302 and -0.007923 | Ca2+ response (delta ratio), P57H/N264H (mGlu1 P57H/N264H mutant; Fig.1e): -0.002972 | Ca2+ response of individual cells (source data Suppl Fig1), P57H/N264H (mGlu1 P57H/N264H mutant; single-cell values #1-#20, P57H/N264H): -0.0004538 and -0.005931 and -0.01735 and 0.02302 and 0.0025 and -0.02347 and -0.004954 and -0.01065 (2×) and 0.01802 and -0.01439 and 0.007646 and -0.01182 and 0.0001154 and -0.0004462 and -0.009846 and 0.01085 and 0.0122 and -0.009315 and -0.01449
